# T1: SbzB (Streptomyces sp., UniProt P0DY32)
# T1 construct: pET28a NdeI/HindIII, His-tagged, E. coli Rosetta2 (DE3), Ni-NTA
# T1 sequence (P0DY32 1-532): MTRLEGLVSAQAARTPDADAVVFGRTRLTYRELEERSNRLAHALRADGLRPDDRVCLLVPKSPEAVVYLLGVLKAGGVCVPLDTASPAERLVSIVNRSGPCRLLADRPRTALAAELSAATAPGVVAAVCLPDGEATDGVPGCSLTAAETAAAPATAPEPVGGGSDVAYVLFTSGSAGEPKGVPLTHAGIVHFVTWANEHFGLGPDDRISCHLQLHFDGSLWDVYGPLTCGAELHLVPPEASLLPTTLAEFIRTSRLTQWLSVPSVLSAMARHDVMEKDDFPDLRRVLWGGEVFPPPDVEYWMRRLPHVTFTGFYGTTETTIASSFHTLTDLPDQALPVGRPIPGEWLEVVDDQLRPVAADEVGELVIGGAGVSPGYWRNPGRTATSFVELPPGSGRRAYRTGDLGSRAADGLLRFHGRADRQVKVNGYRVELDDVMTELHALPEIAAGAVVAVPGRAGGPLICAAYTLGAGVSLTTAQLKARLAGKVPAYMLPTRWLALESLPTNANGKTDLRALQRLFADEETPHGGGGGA
# B1: SbzM (Streptomyces sp.) (protein)
# chain: MSTQQVIAMLTEELHDLDPAERQAKTVELLAVFGRAKAEALQPEERPEAPDTKPGPLLICDWAADLGLDGTTQQLGIEVAPGPTKVTKTADATGHSLASSGHVGADILHVPAGSGFAPHTHPGDHLLFVLAGTGTIAVAGEIVRTRPGQVYMVQGDITHAVGAVTDHMILSVGAPHRRLDSPDRQELTAYAALLGELGEITCRLCDISAAGGEELAAKGCTHSPHRFG
# notes: pET28a NdeI/HindIII, His-tagged, E. coli Rosetta2 (DE3), Ni-NTA; tag cleavage not mentioned
# Experiments:
# [1] = molecular target: T1, SbzB; test: malachite green adenylation assay with hydroxylamine; chiral HPLC; type: biochemical; conditions: 0.5 mM ATP, 10 mM MgCl2, Tris-HCl pH 7.5, 30 °C
# [2] = substrate: N[C@@H](CS)C(=O)O; test: LC-MS quantification of substrate consumption; type: biochemical, Streptomyces sp.; conditions: 50 mM Tris pH 9.0, 30 °C, TCEP, 6 μM SbzM, 2 min, n = 2
Molecule,malachite green adenylation assay with hydroxylamine; chiral HPLC [1],Km [2]
"C[C@H](c1ccccc1)[C@H](N)C(=O)O [(2S, 3R)-β-methylphenylalanine]","SbzB indeed selectively adenylated (2S, 3R)-β-methylphenylalanine as the best substrate",
B1,,530 ± 80 µM
